Source: patent EP0546533A2, “Medical use of kininogenase” (SANWA KAGAKU KENKYUSHO CO., LTD., priority 1991, dated 1993)
Structures can show the parent of a compound that is named as a salt. Non-standard residues stand in square brackets, D forms with d. Residues, ends and D or L forms follow the SMILES beside them. *: point of attachment. pNA = O=[N+]([O-])c1ccc(N*)cc1; AMC = Cc1cc(=O)oc2cc(N*)ccc12

Key:
[1] = target: T1, kininogenase extracted and purified from human urine (original solution) (Homo sapiens, UniProt P06870); experiment: Enzymatic dynamic constants with lower molecule synthetic substrates; type: biochemical; conditions: synthetic substrate
T1 construct: from tissue; host or cells: human urine (pooled, healthy males)
T1 sequence (P06870 25-262): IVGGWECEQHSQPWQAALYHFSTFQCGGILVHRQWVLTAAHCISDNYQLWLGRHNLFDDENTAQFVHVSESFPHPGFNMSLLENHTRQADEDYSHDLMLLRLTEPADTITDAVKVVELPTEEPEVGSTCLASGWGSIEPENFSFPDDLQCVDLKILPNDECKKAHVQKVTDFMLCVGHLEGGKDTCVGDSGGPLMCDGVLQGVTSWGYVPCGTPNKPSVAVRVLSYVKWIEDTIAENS
Text: In the next place, An ability of the kininogenase for making free the kinin was periodically checked by using canine lower molecule kininogen, human lower molecule kininogen and human higher molecule kininogen in various concentration, as substrates to calculate enzymatic dynamic constants of the kininogenase.
An activity of the kininogenase to decomposition of lower molecule synthetic substrates was checked as in said Item (A) to calculate enzymatic dynamic constants of the kininogenase.

[2] = system: model animal with hypoxia; experiment: Influence to model animal with hypoxia (5% O2 breathing); type: in vivo, New Zealand white rabbits
Experimental: Each of female New Zealand white rabbits (body weight of about 3kg) were anethetized with pentbarbital-Na, and a tube was inserted, at once, into their trachea to cause an adjusted breathing with air through a respirator.
After intravenously injecting 0.5mg/kg of tubocurarine chloride to cause an amyotonia, the animal was transferred to a fixing device to cause an orientation of her brain to peel bellies along a median line in its vertex and to form two apertures or windows of 0.5 x 0.5cm at right front portion and 1.0 x 0.5cm at right rear portion of the skull. To the front window, a silver ball electrode was set to measure brain-wave in the cortex, and a local blood flow in the cortex and P02 in brain were measured by utilizing the rear window. Number of heat beats was measured by making trigger R-wave of the […]. These parameters were recorded by feeding the same to a polygraph, crossed thermocouple and recticorder.
After stabilized of each parameters, the air from the respirator was changed to 5% 02 and at once, drugs given later was intravenously injected to continue the experiment for 10 minutes.
• (A) Control group (n = 3) : • Administrated 3.3ml of phosphate buffer (0.05M, pH 7) for 30 minutes at rate of 0.11 ml/min. • (B) 5.0 x 10-^3 PNA units/kg Administration group (n = 3) : • Administrated 3.3ml of solution for 30 minutes at rate of 0.11 ml/min., which solution was prepared by diluting a kininogenase solution of 5.0 x 10-^2 PNA units/ml with phosphate buffer (0.05M, pH 7) by 10 folds. • (C) 2.5 x 10-^3 PNA units/kg Administration group (n = 3) : • Administrated 3.3ml of solution for 30 minutes at rate of 0.11 ml/min., which solution was prepared by diluting a kininogenase solution of 2.5 x 10-^2 PNA units/ml with phosphate buffer (0.05M, pH 7) by 10 folds. • (D) 1.5 x 10-^3 PNA units/kg Administration group (n = 3) : • Administrated 3.3ml of solution for 30 minutes at rate of 0.11 ml/min., which solution was prepared by diluting a kininogenase solution of 1.5 x 10-^2 PNA units/ml with phosphate buffer (0.05M, pH 7) by 10 folds. • (E) Citicholine (100mg/kg) administration group (n = 3) : • Administrated 3.3ml of a solution for 30 minutes at rate of 0.11 ml/min., which solution was prepared by taking 4ml of Nicholine injection solution (250mg/2ml), and diluting the same with phosphate buffer (0.05M, pH 7) to make the drug concentration to 100mg/kg. • (F) Citicholine (10mg/kg) administration group (n = 3) : • Administrated 3.3ml of a solution for 30 minutes at rate of 0.11 ml/min., which solution was prepared by taking 2ml of Nicholine injection solution (100mg/2ml), and diluting the same with phosphate buffer (0.05M, pH 7) to make the drug concentration to 10mg/kg. • (G) Nicardipine (4a g/kg) administration group (n = 3) : • Taking 10mg of Nicardipine, and diluting the same with saline to make the drug concentration to 4µ g/kg to administrate 0.1 ml/kg for 20 seconds.
A ratio of change was calculated on the number of heart beats, and an amount of change was calculated on the P02 in brain and local blood flow in brain. The brain-wave was analyzed with an analyzer (Type ATAC-450 marketed by Japan Photoelectric Co., Ltd.) to print out results. A statistic inspection or examination was carried out with use of a program of FM 11 marketed by Fujitu Co., Ltd. and judged as there is a significant difference, when P value is 0.05 or less in Student's t-test.

[3] = system: model animal destroyed in its internal capsule; type: in vivo, New Zealand white rabbit; conditions: citicholine 100mg/kg i.v. for 30 minutes
Text: An influence of kininogenase to an improvement in an arousal reaction of brain wave in cerebral cortex was checked by selecting a rabbit as a test animal, electrically canterigating an internal capsule to prepare a model animal with symptoms similar to a person caused a cerebral hemorrhage, and administrating the drug, since the destruction of internal capsule gives a partial obstacle to an invigoration system in ascending rectacular region, which has been said as having a close relation with the arousal reaction of brain-wave in cortex.
A cannula was fitted in an auricle vein of a female New Zealand white rabbit to anethetize the animal by intravenously administrating pentbarbital-Na (30mg/kg). […] A concentration of PC02 in the artery blood was periodically measured by a blood gas analyzer to adjust the respirator, so that the concentration lies in a suitable level of 35 ± 5mmHg). […]
The brain-wave was monopolarly derived by the screw type electrode to record on a polygraph and also recorded on a magnetic tape by a data recorder. A cardiogram, blood pressure and number of heart beats were recorded on the polygraph through a secondary induction, a pressure transducer and a momentary heart beat recorder which subjects to cause a trigger the R wave for the cardiogram, respectively. […]
A voltage firstly appeared an arousal reaction, when a voltage for stimulating the rectacular regions shall be raised up with an interval of 5V, and a period of time during which the arousal reaction continues, when the rectacular regions are stimulated with voltage of 4V were defined as the "arousal reaction threshold value" and "arousal reaction sustaining time". The threshold value and sustaining time were visually judged from waves recorded on the charts and shown with units of voltage value (V) and time (sec.). […]

brain in ischemic state = experiment: Cerebral ischemia by ligation of vertebral and common carotid arteries, then release; type: in vivo, rabbit
Experimental: Both of side vertebral arteries of a healthy rabbit were permanently ligated, both of the common carotid arteries were ligated for 40 minutes to make the brain in ischemic state, and then released the ligation of the common carotid arteries to observe a local blood flow and brain-wave in cerebral cortex portion and to measure concentrations of ATP and lactate in the cortex portion, at the time lapsed 15 minutes from the release of blood flow in the common carotid arteries. Following drugs were administrated in following manner. Citicholine : • Intravenously administrated for 30 minutes from 15 minutes before the ligation of common carotid arteries and at a dose of 100mg/kg. Nicardipine : • Rapidly administrated into an upper portion of small intestine at the time of 15 minutes before the ligation of common carotid arteries.

[4] = system: model animal with cerebral infarction; experiment: Cerebral circulation and metabolism in cerebral infarction model (micro-glass bead injection); type: in vivo, rabbit
Experimental: A micro-glass bead was injected into right hemicerebrum of an anethetized healthy rabbit to prepare a model animal with cerebral infarction. After administration of a drug, local blood flow (in cortex portion), micro-circulation in cerebral pia leptmeninges, distribution of cerebral blood flow and concentrations of P02, ATP, lactate, pyruvate, glucose and glucose-6-phosphate were measured. The measurement of biochemical substances was carried out after lapsed 60 minutes from the administration of the drug.
A change in diameter arterioles in cerebral pia leptmeninges was observed, as to blood vessels having diameters of >100, >50 to <100 and <50u m, under microscope and according to Cranial window method.

[5] = system: middle cerebral artery obstructive model animal; experiment: Nerve dysfunction, cerebral circulation and brain wave in middle cerebral artery obstruction model; type: in vivo, Japanese monkey; conditions: citicholine 10mg/kg intravenous infusion, 24 hours after obstruction
Experimental: A tube was fitted to left-outernal carotid artery of anesthetized Japanese monkey and a silicone resin pellet [1 mm (q) ) x 5mm] was inserted into the artery through the tube to prepare a middle cerebral artery obstructive model animal.
After lapsed 5 minutes from the obstruction of left middle cerebral artery, kininogenase (2.5 x 10-^2 PNA units/kg) or citicholine (10mg/kg) as a test and control drugs was administrated through an intravenous infusion.

[6] = system: region occurred a cerebral infarction; experiment: Influence to region of cerebral infarction 24 hours after glass bead injection; type: in vivo, rabbit; conditions: 100mg/kg, sustaining administration for 30 minutes
Experimental: With use of model animals as in Pharmacological Test Example 4, an influence of a drug to region occurred a cerebral infarction at the time after lapsed 24 hours from the injection of glass bead was checked.

[7] = 5% O2, citicholine 100mg/kg or 10mg/kg i.v., Nicardipine 4µ g/kg

Question: For `Cc1cc(=O)oc2cc(NC(=O)[C@H](CCCNC(=N)N)NC(=O)[C@H](Cc3ccccc3)NC(=O)[C@@H]3CCCN3)ccc12` [MCA, L-Pro-L-Phe-L-Arg-4-methyl-cumaryl-7-amide] (H-Pro-Phe-Arg-{AMC}), which Km [1] is on record?
Answer: 34 µM

Question: What about the Vmax [1] of the same compound?
Answer: 2.57e-05 min⁻¹ mg⁻¹

Question: With `CCOC(=O)[C@H](CCCNC(=N)N)NC(=O)c1ccccc1` [BAEE, Benzoyl-L-Arg ethyl ether hydrochloride] as the compound, how does the Km [1] read?
Answer: 252 µM

Question: And the Vmax [1]?
Answer: 4.23e-05 min⁻¹ mg⁻¹

Question: For `CC(C)C[C@H](NC(=O)[C@H](N)C(C)C)C(=O)N[C@@H](CCCNC(=N)N)C(=O)Nc1ccc([N+](=O)[O-])cc1` [PNA, H-D-Val-L-Leu-L-Arg-p-nitroanilide dihydrochloride] (H-[dV]-Leu-Arg-pNA), which Km [1] is on record?
Answer: 8.95 µM

Question: What about the Vmax [1] of the same compound?
Answer: 7.8e-06 min⁻¹ mg⁻¹

Question: With `COC(=O)C1=C(C)NC(C)=C(C(=O)OCCN(C)Cc2ccccc2)C1c1cccc([N+](=O)[O-])c1` (centres unmarked) [Nicardipine] as the compound, how does the “Influence to local blood flow in cerebral cortex (suppression of increase)” value [2, 7] read?
Answer: no effect

Question: Which results are given for `C[N+](C)(C)CCOP(=O)(O)OP(=O)([O-])OC[C@H]1O[C@@H](n2ccc(N)nc2=O)[C@H](O)[C@@H]1O` [Citicholine]?
Answer: frequency components of brain wave in cortex portion (quick wave components) ([3]; reported as a tendency): reduction of quick wave components is suppressed; Sustaining period of time in the arousal reaction ([3]; versus control group): not recognized; Threshold value of arousal reaction ([3]; versus control group): No apparent change; local blood flow in cerebral cortex portion after release of blood flow (brain in ischemic state; citicholine 100mg/kg i.v. for 30 minutes, Nicardipine rapidly into upper small intestine, 15 minutes before ligation): did not suppresses the blood flow increase; reactivation of flattened brain-wave (brain in ischemic state; citicholine 100mg/kg i.v., Nicardipine into upper small intestine): not recognized; suppression of ATP decrease ([4]; 60 minutes after administration of the drug): did not show the suppress of ATP decrease; Blood flow in cerebral cortex portion at the ischemic side ([4]; Nicardipine 0.5mg/kg rapid into upper small intestine, citicholine 10mg/kg sustaining intravenous): no increase; blood flow in cerebral cortex [5]: no improvement; brain wave activities [5]: no improvement; neuro symptoms ([5]; versus control group): improvement; Region of infarction (%) ([6]; 24 hours after glass bead injection): 30.8 ± 19.8%; Inhibition (%) ([6]; versus control): -35.9%; Influence to P02 in cerebral cortex (suppression of decrease) [2, 7]: no suppressing effect; Influence to local blood flow in cerebral cortex (suppression of increase) [2, 7]: no effect; Influence to brain-wave in cortex portion ([2]; 5% O2, citicholine at dose of 100mg/kg): low-amplitude and quick wave; Influence to number of heart beats ([2]; versus control group, citicholine 100mg/kg or 10mg/kg i.v. for 30 minutes, Nicardipine 4µ g/kg for 20 seconds): no significant difference
